Key:
Type in all cases: in vivo
[1] = test system: barnyardgrass (Echinochloa crus-galli); test: Test B flooded paddy test, barnyardgrass; details: 250 g ai/ha, Flood; visual rating after 13 to 15 days; scale 0 to 100, 0 is no effect, 100 is complete control
In short: (§1)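 Plants grown to the 2-leaf stage; pots flooded to 3 cm above soil and compounds applied directly into the paddy water, depth held throughout. After 13 to 15 days in the greenhouse, injury was rated visually against untreated controls on a 0–100 scale (0 no effect, 100 complete control).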

[2] = test system: barnyardgrass (Echinochloa crus-galli); test: Test A preemergence, barnyardgrass; details: Preemergence, 0 to 100 scale (0 no effect, 100 complete control)
In short: (§2)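 Plants grown in pots of loam blended with sand were treated either before emergence, via directed soil spray, or after emergence at the one- to two-leaf stage. Following about 10 days in the greenhouse, each treatment was visually compared with untreated controls and rated from 0 (no effect) to 100 (complete control).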

kochia (Kochia scoparia) [3] = test: Test A postemergence, kochia
In short: as §2

corn (Zea mays) = test: Test A postemergence, corn
In short: as §2

[4] = test system: ryegrass, Italian (Italian ryegrass, Lolium multiflorum); test: Test A preemergence, Italian ryegrass; details: Preemergence, 0 to 100 scale (0 no effect, 100 complete control)
In short: as §2

[5] = test system: ragweed (common ragweed, Ambrosia elatior); test: Test A postemergence, ragweed
In short: as §2

[6] = test system: sedge, umbrella (small-flower umbrella sedge, Cyperus difformis); test: Test B flooded paddy test, umbrella sedge; details: 250 g ai/ha, Flood; visual rating after 13 to 15 days; scale 0 to 100, 0 is no effect, 100 is complete control
In short: as §1

[7] = test system: pigweed (Amaranthus retroflexus); test: Test A preemergence, pigweed; details: Preemergence, 0 to 100 scale (0 no effect, 100 complete control)
In short: as §2

kochia (Kochia scoparia) [8] = test: Test A preemergence, kochia; details: Preemergence, 0 to 100 scale (0 no effect, 100 complete control)
In short: as §2

[9] = test system: foxtail, giant (giant foxtail, Setaria faberii); test: Test A preemergence, giant foxtail; details: Preemergence, 0 to 100 scale (0 no effect, 100 complete control)
In short: as §2

[10] = test system: foxtail, giant (giant foxtail, Setaria faberii); test: Test A postemergence, giant foxtail
In short: as §2

[11] = test system: ragweed (common ragweed, Ambrosia elatior); test: Test A preemergence, ragweed; details: Preemergence, 0 to 100 scale (0 no effect, 100 complete control)
In short: as §2

[12] = test system: blackgrass (Alopecurus myosuroides); test: Test A postemergence, blackgrass
In short: as §2

[13] = test system: galium (catchweed bedstraw, Galium aparine); test: Test A postemergence, galium
In short: as §2

[14] = test system: ducksalad (Heteranthera limosa); test: Test B flooded paddy test, ducksalad; details: 250 g ai/ha, Flood; visual rating after 13 to 15 days; scale 0 to 100, 0 is no effect, 100 is complete control
In short: as §1

[15] = test system: ryegrass, Italian (Italian ryegrass, Lolium multiflorum); test: Test A postemergence, Italian ryegrass
In short: as §2

[16] = test system: barnyardgrass (Echinochloa crus-galli); test: Test A postemergence, barnyardgrass
In short: as §2

[17] = test system: wheat (Triticum aestivum); test: Test A postemergence, wheat
In short: as §2

[18] = test system: pigweed (Amaranthus retroflexus); test: Test A postemergence, pigweed
In short: as §2

rice (Oryza sativa) = test: Test B flooded paddy test, rice; details: 250 g ai/ha, Flood; visual rating after 13 to 15 days; scale 0 to 100, 0 is no effect, 100 is complete control
In short: as §1

[19] = 31 g ai/ha, postemergence, 0 to 100 scale, 0 is no effect, 100 is complete control, approximately 10 days
[20] = 125 g ai/ha, postemergence, 0 to 100 scale, 0 is no effect, 100 is complete control, approximately 10 days
[21] = Postemergence, 31 g ai/ha, 0 to 100 scale (0 no effect, 100 complete control)

SMILES	Plant response rating, Barnyardgrass [1]	Plant response rating, Barnyardgrass ([2]; 31 g ai/ha)	Plant response rating, Barnyardgrass ([2]; 125 g ai/ha)	Plant response rating, Kochia (kochia (Kochia scoparia) [3]; [20])	Plant response rating, Corn (corn (Zea mays); [20])	Plant response rating, Ryegrass, Italian ([4]; 31 g ai/ha)	Plant response rating, Ryegrass, Italian ([4]; 125 g ai/ha)	Plant response rating, Ragweed [5, 20]	Plant response rating, Sedge, Umbrella [6]	Plant response rating, Pigweed ([7]; 31 g ai/ha)	Plant response rating, Pigweed ([7]; 125 g ai/ha)	Plant response rating, Kochia (kochia (Kochia scoparia) [8]; 31 g ai/ha)	Plant response rating, Kochia (kochia (Kochia scoparia) [8]; 125 g ai/ha)	Plant response rating, Foxtail, Giant ([9]; 31 g ai/ha)	Plant response rating, Foxtail, Giant ([9]; 125 g ai/ha)	Plant response rating, Foxtail, Giant [10, 20]	Plant response rating, Ragweed ([11]; 31 g ai/ha)	Plant response rating, Ragweed ([11]; 125 g ai/ha)	Plant response rating, Blackgrass [12, 20]	Plant response rating, Galium [13, 20]	other results
FC(F)(F)CCCOc1c(I)cccc1Oc1ncc(Cl)cn1 [Compound 60]	20	20	80	90	30	0	90	30	95	70	100	30	40	90	90	80	0	0	50	100	Plant response rating, Kochia (kochia (Kochia scoparia) [3]; [19]): 90; Plant response rating, Corn (corn (Zea mays); [19]): 30; Plant response rating, Ragweed [5, 19]: 0; Plant response rating, Foxtail, Giant [10, 19]: 30; Plant response rating, Blackgrass [12, 19]: 30; Plant response rating, Galium [13, 19]: 70; Plant response rating, Ducksalad [14]: 100; Plant response rating, Ryegrass, Italian [15, 19]: 0; Plant response rating, Ryegrass, Italian [15, 20]: 70; Plant response rating, Barnyardgrass [16, 19]: 30; Plant response rating, Barnyardgrass [16, 20]: 100; Plant response rating, Wheat [17, 19]: 0; Plant response rating, Wheat [17, 20]: 20; Plant response rating, Pigweed [18, 19]: 90; Plant response rating, Pigweed [18, 20]: 90; Plant response rating, Rice (rice (Oryza sativa)): 25
O=C(COc1c(Br)cccc1Oc1ncc(Cl)cn1)C(F)(F)C(F)(F)F [Compound 73]	0	0	0	50	10	0	0	0	0	40	50	0	0	0	0	10	0	0	20	40	Plant response rating, Kochia (kochia (Kochia scoparia) [3]; [21]): 0; Plant response rating, Corn (corn (Zea mays); [21]): 0; Plant response rating, Ragweed [5, 21]: 0; Plant response rating, Foxtail, Giant [10, 21]: 0; Plant response rating, Blackgrass [12, 21]: 0; Plant response rating, Galium [13, 21]: 10; Plant response rating, Ducksalad [14]: 0; Plant response rating, Ryegrass, Italian [15, 20]: 0; Plant response rating, Ryegrass, Italian [15, 21]: 0; Plant response rating, Barnyardgrass [16, 20]: 10; Plant response rating, Barnyardgrass [16, 21]: 0; Plant response rating, Wheat [17, 20]: 0; Plant response rating, Wheat [17, 21]: 0; Plant response rating, Pigweed [18, 20]: 60; Plant response rating, Pigweed [18, 21]: 30; Plant response rating, Rice (rice (Oryza sativa)): 0

— US10485235B2, “Aryloxypyrimidinyl ethers as herbicides” (FMC Corporation, priority 2015, dated 2019)
